Measurements published in patent US8609656B2, “Heteroarylphenylurea derivative” (Chugai Seiyaku Kabushiki Kaisha, priority 2004, dated 2013).
pIC50: −log10 of the molar value. ≈ marks a conversion by molar mass, not a printed value.

What was measured:
VEGF dependent HUVEC = assay: Cell growth inhibition test, VEGF dependent HUVEC; assay type: cell-based; conditions: Homo sapiens, 20 ng/mL of VEGF, 72 hours, WST-1, read-out: HUVEC (VEGF Dependence), 50% Growth Inhibition Concentration (IC50 value)
Procedure: (§1) Cell Growth Inhibition Test
(§2) With respect to the compounds relating to the present invention and the known compound (BAY 43-9006), cell growth inhibition activity was measured.
(§3) A sample compound was in-series diluted with dimethyl sulfoxide, and then was 1/50 diluted with a Ca^2+- and Mg^2+-free phosphate-bufferized physiological saline and its 20 μL was poured to a 96-well plate. […] Each of these cell suspensions was dividedly poured to the sample added plate in 180 μL/well and cultured in a 5% carbon dioxide incubator at 37° C. After 72 hours, 20 μL of WST-(HCT 116, a product of Dojin) or WST-1 (HUVEC, a product of Roche diagnostics) was added thereto to each well and the absorbance at 450 nm (reference wavelength: 650 nm) was measured. From the growth inhibition ratio of addition of the sample compound to no-addition of the sample compound as a reference, the 50% growth inhibition IC50) of the sample compound was calculated.
(§4) With respect to the group of representative compounds of the present invention, the IC50 values of HCT 116 and HUVEC (VEGF nondependent growth and VEGF dependent growth) are shown in Tables 5-1 to 5-3.

[1] = system: VEGF non-dependent human umbilical vein endothelial cells (HUVEC); assay: Cell growth inhibition test, VEGF non-dependent HUVEC; assay type: cell-based; conditions: 72 hours, WST-1, read-out: HUVEC (VEGF Nondependence), 50% Growth Inhibition Concentration (IC50 value)
Procedure: as §1, §2, §3, §4

[2] = target: T1, recombinant Raf-1 protein (activated type GST-Raf-1) (Homo sapiens, UniProt P04049); assay: RAF-1 enzyme inhibition test (33P incorporation into MEK 1 protein); assay type: biochemical; conditions: 10 μM ATP, GST-MEK1 substrate, 30° C., 45 minutes; read-out: Raf-1 Enzyme Inhibition, 50% Enzyme Inhibition Concentration (IC50 value)
T1 construct: fused on or other part: GST tag fused to Raf-1
Summary of the method: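 GST-MEK1 (2 μg) was phosphorylated by activated GST-Raf-1 (25 ng) with 10 μM ATP spiked with 33P-ATP, in Tris-HCl pH 7.5 with DTT, NaCl, KF, vanadate and 10 mM MgCl2, for 45 min at 30° C. Protein was precipitated with TCA and radioactivity counted on filters. IC50 was calculated from inhibition relative to a compound-free reference.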

[3] = Solubility to fasted state simulated intestinal fluid; assay type: physicochemical; conditions: fassif, kinetic from dmso stock, fasted state simulated intestinal fluid (pH 6.5), 37° C.
Summary of the method: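 DMSO stock of compound added to FaSSIF (pH 6.5; taurocholate, phosphatidylcholine, KH2PO4, KCl) and shaken 20 h at 37° C. Filtrate diluted with ethanol:water 2:1 and read by UV absorbance; solubility taken as sample-to-standard absorbance ratio (blank-corrected) × 165 μM standard.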

[4] = Antitumor test, reduction in body weight; assay type: in vivo, male Balb/c nude mouse; conditions: dosage 200 mg/kg, orally one time a day for 5 days, day 7 after starting administration
Procedure: (§5) A cell suspension of a human colorectal cancer cell strain HCT 116 was prepared with a Hunks' balanced salt solution. Its 5.0×10^6 were inoculated subcutaneously to the flank of each male Balb/c nude mouse. When the mean volume of a tumor reached 200 to 250 mm^3, a sample compound was orally administered one time a day for 5 days. The tumor volume was calculated from the calculation formula: 0.5×(minor diameter)^2×(major diameter), and the tumor growth inhibition ratio was calculated from the ratio of the tumor growth of the sample administered group to that of a reference group. The dosage in the antitumor test, the tumor growth inhibition ratio on the final administration day and the reduction in body weight on day 7 after starting administration are shown in Tables 6-1 and 6-2

[5] = system: human colorectal cancer cell strain HCT 116; assay: Cell growth inhibition test, HCT 116; assay type: cell-based; conditions: 72 hours, read-out: HCT116, 50% Growth Inhibition Concentration (IC50 value)
Procedure: as §1, §2, §3, §4

[6] = system: human colorectal cancer cell strain HCT 116; assay: Antitumor test, HCT 116 inoculated subcutaneously in nude mouse; assay type: in vivo, male Balb/c nude mouse; conditions: dosage 200 mg/kg, orally one time a day for 5 days, final administration day
Procedure: as §2, §5

T1 sequence (P04049 349-648 limits assumed): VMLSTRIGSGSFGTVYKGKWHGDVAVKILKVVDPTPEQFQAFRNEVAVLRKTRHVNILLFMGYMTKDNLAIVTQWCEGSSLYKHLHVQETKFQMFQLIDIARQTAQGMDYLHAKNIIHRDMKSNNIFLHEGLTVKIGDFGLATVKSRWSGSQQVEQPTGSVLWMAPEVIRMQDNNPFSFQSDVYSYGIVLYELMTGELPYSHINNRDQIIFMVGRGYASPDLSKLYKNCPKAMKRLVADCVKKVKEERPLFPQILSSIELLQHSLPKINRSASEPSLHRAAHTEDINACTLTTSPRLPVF

pIC50 [2] | solubility at 20 h [3] [µg/mL] | pIC50 [5] | SMILES | pIC50 (VEGF dependent HUVEC) | pIC50 [1] | Body Weight Reduction ratio (%) [4] [%] | Tumor Inhibition Ratio (%) [6] [%]
7.89 | 39 (≈ 73.2 µM) | 5.43 | CCCNC(=O)Nc1ncnc2c1ncn2-c1ccc(NC(=O)Nc2ccc(Cl)c(C(F)(F)F)c2)cc1 [Table 1, Compound 119, 1-(9-{4-[3-(4-Chloro-3-(tri-fluoromethyl)phenyl)ureido]-phenyl}-9H-purin-6-yl)-3-propylurea] | 7.19 | 6.01 | 8.5 | 89
6.96 | 158 (≈ 293 µM) | 5.77 | CNc1ncnc2c1ncn2-c1ccc(NC(=O)Nc2cc(CN3CCN(C)CC3)cc(C(F)(F)F)c2)cc1 [Table 2, Compound 25, 1-[4-(6-(Methylamino)purin-9-yl)phenyl]-3-[3-(4-methyl-piperazin-1-ylmethyl)-5-(tri-fluoromethyl)phenyl]urea] | 6.55 | 5.77 | 2.7 | 80
